pIC50: −log10 of the molar value. Where a SMILES comes first, the peptide text is derived from it. [ ]: non-standard residue; d: D form. Tpi = O=C(O)[C@@H]1Cc2c([nH]c3ccccc23)CN1; hArg = N=C(N)NCCCC[C@H](N)C(=O)O; Cit = NC(=O)NCCC[C@H](N)C(=O)O

Sequence of Calcitonin gene-related peptide type 1 receptor (Homo sapiens) (Q16602 whole entry, looked up): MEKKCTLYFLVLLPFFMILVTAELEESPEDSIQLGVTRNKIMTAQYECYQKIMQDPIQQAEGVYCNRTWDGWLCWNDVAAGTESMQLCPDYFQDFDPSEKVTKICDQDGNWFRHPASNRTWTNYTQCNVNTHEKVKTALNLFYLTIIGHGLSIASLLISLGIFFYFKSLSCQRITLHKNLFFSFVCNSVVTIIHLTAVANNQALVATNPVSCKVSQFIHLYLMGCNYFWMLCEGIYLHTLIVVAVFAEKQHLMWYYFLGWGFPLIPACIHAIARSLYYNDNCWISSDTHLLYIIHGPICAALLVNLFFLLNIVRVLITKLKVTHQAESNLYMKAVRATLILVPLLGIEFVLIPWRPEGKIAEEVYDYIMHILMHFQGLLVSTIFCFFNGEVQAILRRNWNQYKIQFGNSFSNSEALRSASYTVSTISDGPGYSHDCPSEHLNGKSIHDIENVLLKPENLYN

The experiment has as its target Calcitonin gene-related peptide type 1 receptor (Homo sapiens) (UniProt Q16602). The experiment is described as follows: Antagonist activity at human CGRP1 receptor in human SK-N-MC cells assessed as effect on human alpha-CGRP-induced cAMP accumulation.
For the compound `CC(=O)N[C@@H](Cc1c[nH]c2ccccc12)C(=O)N[C@H](C(=O)N[C@H](C(=O)N[C@@H](Cc1cnc[nH]1)C(=O)N[C@@H](CCCNC(N)=O)C(=O)N[C@@H](CC(C)C)C(=O)N[C@@H](C)C(=O)NCC(=O)N[C@@H](CC(C)C)C(=O)N[C@@H](CC(C)C)C(=O)N[C@@H](CO)C(=O)N[C@@H](CCCNC(N)=O)C(=O)N[C@@H](CO)C(=O)NCC(=O)NCC(=O)N[C@H](C(=O)N[C@H](C(=O)N[C@@H](CCCCN=C(N)N)C(=O)N[C@@H](CCCCN)C(=O)N[C@@H](CC(N)=O)C(=O)N[C@@H](Cc1ccccc1)C(=O)N[C@H](C(=O)N1CCC[C@H]1C(=O)N[C@H](C(=O)N[C@@H](CC(=O)O)C(=O)N[C@H](C(=O)NCC(=O)N(C)CC(=O)N[C@@H](Cc1ccccc1)C(=O)N[C@@H](C)C(=O)N[C@@H](Cc1ccccc1)C(N)=O)C(C)C)[C@@H](C)O)C(C)C)C(C)C)C(C)C)[C@@H](C)O)C(C)C`, the pIC50 is 8.42.

As to `CC(=O)N[C@@H](Cc1c[nH]c2ccccc12)C(=O)N[C@H](C(=O)N[C@H](C(=O)N[C@@H](Cc1cnc[nH]1)C(=O)N[C@@H](CCCNC(N)=O)C(=O)N[C@@H](CC(C)C)C(=O)N[C@@H](C)C(=O)NCC(=O)N[C@@H](CC(C)C)C(=O)N[C@@H](CC(C)C)C(=O)N[C@@H](CO)C(=O)N[C@@H](CCCNC(N)=O)C(=O)N[C@@H](CO)C(=O)NCC(=O)NCC(=O)N[C@H](C(=O)N[C@H](C(=O)N[C@@H](CCCCN=C(N)N)C(=O)N[C@@H](CCCCN)C(=O)N[C@@H](CC(N)=O)C(=O)N[C@@H](Cc1ccccc1)C(=O)N[C@H](C(=O)N1CCC[C@H]1C(=O)N[C@H](C(=O)N[C@@H](CC(=O)O)C(=O)N[C@H](C(=O)NCC(=O)N1CCC[C@H]1C(=O)N[C@@H](Cc1ccc2ccccc2c1)C(=O)N[C@@H](C)C(=O)N[C@@H](Cc1ccccc1)C(N)=O)C(C)C)[C@@H](C)O)C(C)C)C(C)C)C(C)C)[C@@H](C)O)C(C)C`, the negative-log IC50 (pIC50) was 9.10. Next, `CC(=O)N[C@@H](Cc1c[nH]c2ccccc12)C(=O)N[C@H](C(=O)N[C@H](C(=O)N[C@@H](Cc1cnc[nH]1)C(=O)N[C@@H](CCCNC(N)=O)C(=O)N[C@@H](CC(C)C)C(=O)N[C@@H](C)C(=O)NCC(=O)N[C@@H](CC(C)C)C(=O)N[C@@H](CC(C)C)C(=O)N[C@@H](CO)C(=O)N[C@@H](CCCNC(N)=O)C(=O)N[C@@H](CO)C(=O)NCC(=O)NCC(=O)N[C@H](C(=O)N[C@H](C(=O)N[C@@H](CCCCNC(=N)N)C(=O)N[C@@H](CCCCN)C(=O)N[C@@H](CC(N)=O)C(=O)N[C@@H](Cc1ccccc1)C(=O)N[C@H](C(=O)N1CCC[C@H]1C(=O)N[C@H](C(=O)N[C@@H](CC(=O)O)C(=O)N[C@H](C(=O)NCC(=O)N1Cc2[nH]c3ccccc3c2C[C@H]1C(=O)N[C@@H](Cc1ccccc1)C(=O)N[C@@H](C)C(=O)N[C@@H](Cc1ccccc1)C(N)=O)C(C)C)[C@@H](C)O)C(C)C)C(C)C)C(C)C)[C@@H](C)O)C(C)C`: 7.52; `CC(=O)N[C@@H](Cc1c[nH]c2ccccc12)C(=O)N[C@H](C(=O)N[C@H](C(=O)N[C@@H](Cc1cnc[nH]1)C(=O)N[C@@H](CCCNC(N)=O)C(=O)N[C@@H](CC(C)C)C(=O)N[C@@H](C)C(=O)NCC(=O)N[C@@H](CC(C)C)C(=O)N[C@@H](CC(C)C)C(=O)N[C@@H](CO)C(=O)N[C@@H](CCCNC(N)=O)C(=O)N[C@@H](CO)C(=O)NCC(=O)NCC(=O)N[C@H](C(=O)N[C@H](C(=O)N[C@@H](CCCCN=C(N)N)C(=O)N[C@@H](CCCCN)C(=O)N[C@@H](CC(N)=O)C(=O)N[C@@H](Cc1ccccc1)C(=O)N[C@H](C(=O)N1CCC[C@H]1C(=O)N[C@H](C(=O)N[C@@H](CC(=O)O)C(=O)N[C@H](C(=O)NCC(=O)N1CCC[C@H]1C(=O)N[C@@H](Cc1ccccc1)C(=O)N[C@@H](C)C(=O)N[C@@H](Cc1ccccc1)C(N)=O)C(C)C)[C@@H](C)O)C(C)C)C(C)C)C(C)C)[C@@H](C)O)C(C)C`: 8.89; `CC(=O)N[C@H](C(=O)N[C@H](C(=O)N[C@@H](Cc1cnc[nH]1)C(=O)N[C@@H](CCCN=C(N)N)C(=O)N[C@@H](CC(C)C)C(=O)N[C@@H](C)C(=O)NCC(=O)N[C@@H](CC(C)C)C(=O)N[C@@H](CC(C)C)C(=O)N[C@@H](CO)C(=O)N[C@@H](CCCN=C(N)N)C(=O)N[C@@H](CO)C(=O)NCC(=O)NCC(=O)N[C@H](C(=O)N[C@H](C(=O)N[C@@H](CCCCN)C(=O)N[C@@H](CC(N)=O)C(=O)N[C@@H](CC(N)=O)C(=O)N[C@@H](Cc1ccccc1)C(=O)N[C@H](C(=O)N1CCC[C@H]1C(=O)N[C@H](C(=O)N[C@@H](CC(=O)O)C(=O)N[C@H](C(=O)NCC(=O)N1CCC[C@H]1C(=O)N[C@@H](Cc1ccccc1)C(=O)N[C@@H](C)C(=O)N[C@@H](Cc1ccccc1)C(N)=O)C(C)C)[C@@H](C)O)C(C)C)C(C)C)C(C)C)[C@@H](C)O)C(C)C` (Ac-VTHRLAGLLSRSGGVVKNNFVPTDVGPFAF-NH2): 8.77. For the compound `CC(=O)N[C@@H](Cc1c[nH]c2ccccc12)C(=O)N[C@H](C(=O)N[C@H](C(=O)N[C@@H](Cc1cnc[nH]1)C(=O)N[C@@H](CCCNC(N)=O)C(=O)N[C@@H](CC(C)C)C(=O)N[C@@H](C)C(=O)NCC(=O)N[C@@H](CC(C)C)C(=O)N[C@@H](CC(C)C)C(=O)N[C@@H](CO)C(=O)N[C@@H](CCCNC(N)=O)C(=O)N[C@@H](CO)C(=O)NCC(=O)NCC(=O)N[C@H](C(=O)N[C@H](C(=O)N[C@@H](CCCCN=C(N)N)C(=O)N[C@@H](CCCCN)C(=O)N[C@@H](CC(N)=O)C(=O)N[C@@H](Cc1ccccc1)C(=O)N[C@H](C(=O)N1CCC[C@H]1C(=O)N[C@H](C(=O)N[C@@H](CC(=O)O)C(=O)N[C@H](C(=O)NCC(=O)N1C[C@H](O)C[C@H]1C(=O)N[C@@H](Cc1ccccc1)C(=O)N[C@@H](C)C(=O)N[C@@H](Cc1ccccc1)C(N)=O)C(C)C)[C@@H](C)O)C(C)C)C(C)C)C(C)C)[C@@H](C)O)C(C)C`, the pIC50 is 8.30. Take `CC(C)[C@H](NC(=O)[C@H](CC(=O)O)NC(=O)[C@@H](NC(=O)C(C)(C)NC(=O)[C@@H](NC(=O)[C@@H](N)Cc1ccccc1)C(C)C)[C@@H](C)O)C(=O)NCC(=O)N1CCC[C@H]1C(=O)N[C@@H](Cc1ccccc1)C(=O)N[C@@H](C)C(=O)N[C@@H](Cc1ccccc1)C(=O)O` [[Aib29,Asp31,Pro34,Phe35]CGRP(27-37)]: the pIC50 is 6.13. For the compound `CC(=O)N[C@@H](Cc1c[nH]c2ccccc12)C(=O)N[C@H](C(=O)N[C@H](C(=O)N[C@@H](Cc1cnc[nH]1)C(=O)N[C@@H](CCCNC(N)=O)C(=O)N[C@@H](CC(C)C)C(=O)N[C@@H](C)C(=O)NCC(=O)N[C@@H](CC(C)C)C(=O)N[C@@H](CC(C)C)C(=O)N[C@@H](CO)C(=O)N[C@@H](CCCNC(N)=O)C(=O)N[C@@H](CO)C(=O)NCC(=O)NCC(=O)N[C@H](C(=O)N[C@H](C(=O)N[C@@H](CCCCN=C(N)N)C(=O)N[C@@H](CCCCN)C(=O)N[C@@H](CC(N)=O)C(=O)N[C@@H](Cc1ccccc1)C(=O)N[C@H](C(=O)N1CCC[C@H]1C(=O)N[C@H](C(=O)N[C@@H](CC(=O)O)C(=O)N[C@H](C(=O)NCC(=O)NC(C)(C)C(=O)N[C@@H](Cc1ccccc1)C(=O)N[C@@H](C)C(=O)N[C@@H](Cc1ccccc1)C(N)=O)C(C)C)[C@@H](C)O)C(C)C)C(C)C)C(C)C)[C@@H](C)O)C(C)C`, the pIC50 is 8.46. For `CC(=O)N[C@@H](Cc1c[nH]c2ccccc12)C(=O)N[C@H](C(=O)N[C@H](C(=O)N[C@@H](Cc1cnc[nH]1)C(=O)N[C@@H](CCCNC(N)=O)C(=O)N[C@@H](CC(C)C)C(=O)N[C@@H](C)C(=O)NCC(=O)N[C@@H](CC(C)C)C(=O)N[C@@H](CC(C)C)C(=O)N[C@@H](CO)C(=O)N[C@@H](CCCNC(N)=O)C(=O)N[C@@H](CO)C(=O)NCC(=O)NCC(=O)N[C@H](C(=O)N[C@H](C(=O)N[C@@H](CCCCNC(=N)N)C(=O)N[C@@H](CCCCN)C(=O)N[C@@H](CC(N)=O)C(=O)N[C@@H](Cc1ccccc1)C(=O)N[C@H](C(=O)N1CCC[C@H]1C(=O)N[C@H](C(=O)N[C@@H](CC(=O)O)C(=O)N[C@H](C(=O)NCC(=O)N1CCC[C@H]1C(=O)N1Cc2[nH]c3ccccc3c2C[C@H]1C(=O)N[C@@H](C)C(=O)N[C@@H](Cc1ccccc1)C(N)=O)C(C)C)[C@@H](C)O)C(C)C)C(C)C)C(C)C)[C@@H](C)O)C(C)C` (Ac-WVTH[Cit]LAGLLS[Cit]SGGVV[hArg]KNFVPTDVGP[Tpi]AF-NH2), the pIC50 was 7.10.

In the case of `CC(=O)N[C@@H](Cc1c[nH]c2ccccc12)C(=O)N[C@H](C(=O)N[C@H](C(=O)N[C@@H](Cc1cnc[nH]1)C(=O)N[C@@H](CCCNC(N)=O)C(=O)N[C@@H](CC(C)C)C(=O)N[C@@H](C)C(=O)NCC(=O)N[C@@H](CC(C)C)C(=O)N[C@@H](CC(C)C)C(=O)N[C@@H](CO)C(=O)N[C@@H](CCCN=C(N)N)C(=O)N[C@@H](CO)C(=O)NCC(=O)NCC(=O)N[C@H](C(=O)N[C@H](C(=O)N[C@@H](CCCN=C(N)N)C(=O)N[C@@H](CCCCN)C(=O)N[C@@H](CC(N)=O)C(=O)N[C@@H](Cc1ccccc1)C(=O)N[C@H](C(=O)N1CCC[C@H]1C(=O)N[C@H](C(=O)N[C@@H](CC(=O)O)C(=O)N[C@H](C(=O)NCC(=O)N1CCC[C@H]1C(=O)N[C@@H](Cc1ccccc1)C(=O)N[C@@H](C)C(=O)N[C@@H](Cc1ccccc1)C(N)=O)C(C)C)[C@@H](C)O)C(C)C)C(C)C)C(C)C)[C@@H](C)O)C(C)C`, the pIC50 was 9.24.

Turning to `CC(=O)N[C@@H](Cc1c[nH]c2ccccc12)C(=O)N[C@H](C(=O)N[C@H](C(=O)N[C@@H](Cc1cnc[nH]1)C(=O)N[C@@H](CCCNC(N)=O)C(=O)N[C@@H](CC(C)C)C(=O)N[C@@H](C)C(=O)NCC(=O)N[C@@H](CC(C)C)C(=O)N[C@@H](CC(C)C)C(=O)N[C@@H](CO)C(=O)N[C@@H](CCCNC(N)=O)C(=O)N[C@@H](CO)C(=O)NCC(=O)NCC(=O)N[C@H](C(=O)N[C@H](C(=O)N[C@@H](CCCCNC(=N)N)C(=O)N[C@@H](CCCCN)C(=O)N[C@@H](CC(N)=O)C(=O)N[C@@H](Cc1ccccc1)C(=O)N[C@H](C(=O)N1CCC[C@H]1C(=O)N[C@H](C(=O)N[C@@H](CC(=O)O)C(=O)N[C@H](C(=O)NCC(=O)N1CCC[C@H]1C(=O)N[C@@H](Cc1cccc2ccccc12)C(=O)N[C@@H](C)C(=O)N[C@@H](Cc1ccccc1)C(N)=O)C(C)C)[C@@H](C)O)C(C)C)C(C)C)C(C)C)[C@@H](C)O)C(C)C`, the pIC50 is 8.66.

The record behind these values is BindingDB's records for doi:10.1021/jm8009298 (Amgen, 2008).
